Test results taken from ChEMBL document CHEMBL1201862, “PubChem BioAssay data set” (2004).
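Cells were grown in 96-well plates and exposed to each compound for 48 hours at five concentrations; endpoints were interpolated linearly between bracketing concentrations, or set to the highest concentration if not reached. At the GI50, growth is halved.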 Active and inactive are the calls of the source. Cut-off read from the data, not from the text of the source: active = GI50 up to about 1.1 µM and inactive = higher.

Assays:
Assay in all cases: growth of human tumour cells (NCI), 48 h
HT-29 = system: HT-29
COLO 205 = system: COLO 205
NCI-H522 = system: NCI-H522
UO-31 = system: UO-31
UACC-62 = system: UACC-62
KM12 = system: KM12
SF-268 = system: SF-268
MDA-MB-231 = system: MDA-MB-231
LOX IMVI = system: LOX IMVI
SF-295 = system: SF-295
HCC 2998 = system: HCC 2998
UACC-257 = system: UACC-257
TK-10 = system: TK-10
HOP-62 = system: HOP-62
NCI/ADR-RES = system: NCI/ADR-RES
HCT-116 = system: HCT-116
IGROV-1 = system: IGROV-1
CCRF-CEM = system: CCRF-CEM
NCI-H226 = system: NCI-H226
RPMI-8226 = system: RPMI-8226
HL-60 = system: HL-60
MDA-N = system: MDA-N
SNB-19 = system: SNB-19
U-251 = system: U-251
SW-620 = system: SW-620
Malme-3M = system: Malme-3M
SK-MEL-5 = system: SK-MEL-5
SN12C = system: SN12C
OVCAR-8 = system: OVCAR-8
SK-OV-3 = system: SK-OV-3
OVCAR-4 = system: OVCAR-4
OVCAR-3 = system: OVCAR-3
A498 = system: A498
SK-MEL-28 = system: SK-MEL-28
SR = system: SR
NCI-H23 = system: NCI-H23
SK-MEL-2 = system: SK-MEL-2
M14 = system: M14
OVCAR-5 = system: OVCAR-5
HOP-92 = system: HOP-92
MCF7 = system: MCF7
EKVX = system: EKVX
T47D = system: T47D
ACHN = system: ACHN
PC-3 = system: PC-3
786-0 = system: 786-0
BT-549 = system: BT-549
A549 = system: A549
Hs-578T = system: Hs-578T
HCT-15 = system: HCT-15
NCI-H460 = system: NCI-H460
CAKI-1 = system: CAKI-1
MDA-MB-435 = system: MDA-MB-435
K562 = system: K562
MOLT-4 = system: MOLT-4
DU-145 = system: DU-145
SF-539 = system: SF-539
RXF 393 = system: RXF 393
SNB-75 = system: SNB-75

Compound: COc1cc(CCC(=O)O)c2cc3ccccc3cc2c1O
- GI50 (HT-29): 21.1 µM (inactive)
- GI50 (COLO 205): 18 µM (inactive)
- GI50 (NCI-H522): 20.7 µM (inactive)
- GI50 (UO-31): 17.8 µM (inactive)
- GI50 (UACC-62): 18.4 µM (inactive)
- GI50 (KM12): 20.5 µM (inactive)
- GI50 (SF-268): 19.6 µM (inactive)
- GI50 (MDA-MB-231): 18.9 µM (inactive)
- GI50 (LOX IMVI): 21.5 µM (inactive)
- GI50 (SF-295): 20 µM (inactive)
- GI50 (HCC 2998): 29 µM (inactive)
- GI50 (UACC-257): 16.1 µM (inactive)
- GI50 (TK-10): 33.3 µM (inactive)
- GI50 (HOP-62): 17.6 µM (inactive)
- GI50 (NCI/ADR-RES): 25.6 µM (inactive)
- GI50 (HCT-116): 17.2 µM (inactive)
- GI50 (IGROV-1): 18.7 µM (inactive)
- GI50 (CCRF-CEM): 3.22 µM (inactive)
- GI50 (NCI-H226): 32.6 µM (inactive)
- GI50 (RPMI-8226): 12.4 µM (inactive)
- GI50 (HL-60): 16.5 µM (inactive)
- GI50 (MDA-N): 17.3 µM (inactive)
- GI50 (SNB-19): 23.5 µM (inactive)
- GI50 (U-251): 16.4 µM (inactive)
- GI50 (SW-620): 21.4 µM (inactive)
- GI50 (Malme-3M): 18.4 µM (inactive)
- GI50 (SK-MEL-5): 15.1 µM (inactive)
- GI50 (SN12C): 17.8 µM (inactive)
- GI50 (OVCAR-8): 16.3 µM (inactive)
- GI50 (SK-OV-3): 67.1 µM (inactive)
- GI50 (OVCAR-4): 15.6 µM (inactive)
- GI50 (OVCAR-3): 21.4 µM (inactive)
- GI50 (A498): 33.6 µM (inactive)
- GI50 (SK-MEL-28): 22.4 µM (inactive)
- GI50 (SR): 15.6 µM (inactive)
- GI50 (NCI-H23): 19.1 µM (inactive)
- GI50 (SK-MEL-2): 18.3 µM (inactive)
- GI50 (M14): 21.7 µM (inactive)
- GI50 (OVCAR-5): 20.4 µM (inactive)
- GI50 (HOP-92): 30.9 µM (inactive)
- GI50 (MCF7): 16.4 µM (inactive)
- GI50 (EKVX): 24.7 µM (inactive)
- GI50 (T47D): 14.6 µM (inactive)
- GI50 (ACHN): 17.3 µM (inactive)
- GI50 (PC-3): 18.5 µM (inactive)
- GI50 (786-0): 16.8 µM (inactive)
- GI50 (BT-549): 17.1 µM (inactive)
- GI50 (A549): 22.1 µM (inactive)
- GI50 (Hs-578T): 39.6 µM (inactive)
- GI50 (HCT-15): 18.2 µM
- GI50 (NCI-H460): 23.2 µM (inactive)
- GI50 (CAKI-1): 19.6 µM (inactive)
- GI50 (MDA-MB-435): 15.3 µM (inactive)
- GI50 (K562): 20.8 µM (inactive)
- GI50 (MOLT-4): 8.89 µM (inactive)

Compound: COc1ccc2oc(=O)c(-c3nc4ccccc4s3)cc2c1
- GI50 (HT-29): 13.6 µM (inactive)
- GI50 (COLO 205): 54.1 µM (inactive)
- GI50 (NCI-H522): 29.4 µM (inactive)
- GI50 (UO-31): 13.9 µM (inactive)
- GI50 (UACC-62): 43.5 µM (inactive)
- GI50 (KM12): > 55.3 µM (inactive)
- GI50 (SF-268): 34 µM (inactive)
- GI50 (MDA-MB-231): 18.7 µM (inactive)
- GI50 (LOX IMVI): 17.8 µM (inactive)
- GI50 (SF-295): 21.5 µM (inactive)
- GI50 (HCC 2998): > 100 µM (inactive)
- GI50 (UACC-257): > 85.1 µM (inactive)
- GI50 (TK-10): 32.2 µM (inactive)
- GI50 (HOP-62): 14.2 µM (inactive)
- GI50 (NCI/ADR-RES): 28.8 µM (inactive)
- GI50 (HCT-116): 11.6 µM (inactive)
- GI50 (IGROV-1): 12.8 µM (inactive)
- GI50 (CCRF-CEM): > 38.5 µM (inactive)
- GI50 (NCI-H226): 19.2 µM (inactive)
- GI50 (RPMI-8226): > 62.7 µM (inactive)
- GI50 (HL-60): > 100 µM (inactive)
- GI50 (DU-145): 21.8 µM (inactive)
- GI50 (MDA-N): 20.1 µM (inactive)
- GI50 (SNB-19): 46.7 µM (inactive)
- GI50 (U-251): 15 µM (inactive)
- GI50 (SW-620): 32.6 µM (inactive)
- GI50 (Malme-3M): 8.61 µM (inactive)
- GI50 (SK-MEL-5): 33.5 µM (inactive)
- GI50 (SN12C): 33.4 µM (inactive)
- GI50 (OVCAR-8): 14.9 µM (inactive)
- GI50 (SK-OV-3): 13.6 µM (inactive)
- GI50 (OVCAR-4): 20.8 µM (inactive)
- GI50 (OVCAR-3): 14.2 µM (inactive)
- GI50 (A498): 20.8 µM (inactive)
- GI50 (SK-MEL-28): > 59.3 µM (inactive)
- GI50 (SR): 22 µM (inactive)
- GI50 (NCI-H23): 27.5 µM (inactive)
- GI50 (SK-MEL-2): > 100 µM (inactive)
- GI50 (M14): 22.7 µM (inactive)
- GI50 (SF-539): 3.92 µM (inactive)
- GI50 (OVCAR-5): 23 µM (inactive)
- GI50 (RXF 393): 12.2 µM (inactive)
- GI50 (HOP-92): 19.7 µM (inactive)
- GI50 (EKVX): 19.2 µM (inactive)
- GI50 (T47D): 20.6 µM (inactive)
- GI50 (ACHN): 5.55 µM (inactive)
- GI50 (PC-3): 63.8 µM (inactive)
- GI50 (786-0): 7.82 µM (inactive)
- GI50 (BT-549): > 63.7 µM (inactive)
- GI50 (A549): 19.9 µM (inactive)
- GI50 (SNB-75): 8.65 µM (inactive)
- GI50 (Hs-578T): 23.2 µM (inactive)
- GI50 (HCT-15): > 79.6 µM
- GI50 (NCI-H460): 16.6 µM (inactive)
- GI50 (CAKI-1): 18.5 µM (inactive)
- GI50 (MDA-MB-435): 12 µM (inactive)
- GI50 (K562): > 100 µM (inactive)
- GI50 (MOLT-4): > 77.6 µM (inactive)

Compound: CCOC(=O)/C=C(\C(=O)OCC)n1cc(Cl)c(=O)n(CC(=O)OCC)c1=O
- GI50 (HT-29): 16.5 µM (inactive)
- GI50 (COLO 205): 0.697 µM (active)
- GI50 (NCI-H522): 0.78 µM (active)
- GI50 (UO-31): 1.87 µM (inactive)
- GI50 (UACC-62): 10.9 µM (inactive)
- GI50 (KM12): 18.2 µM (inactive)
- GI50 (SF-268): 17.7 µM (inactive)
- GI50 (MDA-MB-231): 16 µM (inactive)
- GI50 (LOX IMVI): 4.99 µM (inactive)
- GI50 (SF-295): > 43.5 µM (inactive)
- GI50 (HCC 2998): 21.1 µM (inactive)
- GI50 (UACC-257): 2.96 µM (inactive)
- GI50 (TK-10): 1.89 µM (inactive)
- GI50 (HOP-62): 18 µM (inactive)
- GI50 (NCI/ADR-RES): 27.6 µM (inactive)
- GI50 (HCT-116): 2.19 µM (inactive)
- GI50 (IGROV-1): 6.93 µM (inactive)
- GI50 (CCRF-CEM): 5.09 µM (inactive)
- GI50 (NCI-H226): 16.4 µM (inactive)
- GI50 (RPMI-8226): 1.74 µM (inactive)
- GI50 (HL-60): 2.81 µM (inactive)
- GI50 (DU-145): 17 µM (inactive)
- GI50 (MDA-N): 11.3 µM (inactive)
- GI50 (SNB-19): 18.8 µM (inactive)
- GI50 (U-251): 15.6 µM (inactive)
- GI50 (SW-620): 1.91 µM (inactive)
- GI50 (Malme-3M): 1.57 µM (inactive)
- GI50 (SK-MEL-5): 15.7 µM (inactive)
- GI50 (SN12C): 14.5 µM (inactive)
- GI50 (OVCAR-8): 2.19 µM (inactive)
- GI50 (SK-OV-3): 19.5 µM (inactive)
- GI50 (OVCAR-4): 15.2 µM (inactive)
- GI50 (OVCAR-3): 2.82 µM (inactive)
- GI50 (A498): 19.2 µM (inactive)
- GI50 (SK-MEL-28): 16.7 µM (inactive)
- GI50 (NCI-H23): 14.7 µM (inactive)
- GI50 (SK-MEL-2): 16.2 µM (inactive)
- GI50 (M14): 3.4 µM (inactive)
- GI50 (SF-539): 14 µM (inactive)
- GI50 (OVCAR-5): 18.1 µM (inactive)
- GI50 (RXF 393): 1.69 µM (inactive)
- GI50 (HOP-92): 1.85 µM (inactive)
- GI50 (MCF7): 2.62 µM (inactive)
- GI50 (EKVX): 14.3 µM (inactive)
- GI50 (T47D): 1.66 µM (inactive)
- GI50 (ACHN): 1.63 µM (inactive)
- GI50 (PC-3): 14.5 µM (inactive)
- GI50 (786-0): 1.73 µM (inactive)
- GI50 (BT-549): 18 µM (inactive)
- GI50 (A549): 19.9 µM (inactive)
- GI50 (SNB-75): 18.7 µM (inactive)
- GI50 (Hs-578T): 23.7 µM (inactive)
- GI50 (HCT-15): 3.17 µM
- GI50 (NCI-H460): 23.4 µM (inactive)
- GI50 (CAKI-1): 2.25 µM (inactive)
- GI50 (MDA-MB-435): 16.9 µM (inactive)
- GI50 (MOLT-4): 1.91 µM (inactive)
